In PMC3701070 (PLoS ONE, 2013):

Tests used:
Assay in all cases: Cell growth assay
Format in all cases: cell-based
647-V = settings: Homo sapiens, 72 h, RAF WT, RAS WT, 3-day, read-out: gIC50
In short: (§1)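 Luminescent cell viability signal (CellTiter-Glo) serves as the read-out. Measurements bracket a 72 h window, with a baseline at t = 0. Values are gIC50s for inhibition of growth.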

A2780 = settings: Homo sapiens, 72 h; A2780, RAF WT, RAS WT, 3-day; read-out: gIC50
In short: as §1

A673 = settings: Homo sapiens, 72 h; A673, BRAF(V600E), RAS WT, 3-day; read-out: gIC50
In short: as §1

BC-1 = settings: Homo sapiens, BC1, 72 h; BC-1, RAF WT, RAS WT, 3-day; read-out: gIC50
In short: as §1

BC-3 = settings: Homo sapiens, 72 h; BC-3, RAF WT, RAS WT, 3-day; read-out: gIC50
In short: as §1

BFTC-905 = settings: Homo sapiens, 72 h; BFTC-905, RAF WT, NRAS(Q61L), 3-day; read-out: gIC50
In short: as §1

CAL-62 = settings: Homo sapiens, 72 h; CAL-62, RAF WT, RAS WT, 3-day; read-out: gIC50
In short: as §1

CEM/C1 = settings: Homo sapiens, 72 h; CEM/C1, RAF WT, RAS WT, 3-day; read-out: gIC50
In short: as §1

Calu-6 = settings: Homo sapiens, 72 h; Calu-6, RAF WT, KRAS(Q61K), 3-day; read-out: gIC50
In short: as §1

Colo320DM = settings: Homo sapiens, COLO 320DM, 72 h, RAF WT, RAS WT, 3-day, read-out: gIC50
In short: as §1

DOTC 24510 = settings: Homo sapiens, DoTc2-4510, 72 h; DOTC 24510, RAF WT, RAS WT, 3-day; read-out: gIC50
In short: as §1

DU-145 = settings: Homo sapiens, 72 h; DU-145, RAF WT, RAS WT, 3-day; read-out: gIC50
In short: as §1

G401 = settings: Homo sapiens, G-401, 72 h; G401, RAF WT, RAS WT, 3-day; read-out: gIC50
In short: as §1

HOS = settings: Homo sapiens, 72 h, RAF WT, RAS WT, 3-day, read-out: gIC50
In short: as §1

HeLa = settings: Homo sapiens, 72 h, RAF WT, RAS WT, 3-day, read-out: gIC50
In short: as §1

HuT78 = settings: Homo sapiens, 72 h; HuT78, RAF WT, RAS WT, 3-day; read-out: gIC50
In short: as §1

MC/CAR = settings: Homo sapiens, 72 h, RAF WT, RAS WT, 3-day, read-out: gIC50
In short: as §1

MDA-MB-468 = settings: Homo sapiens, 72 h; MDA-MB-468, RAF WT, RAS WT, 3-day; read-out: gIC50
In short: as §1

NCI-H2052 = settings: Homo sapiens, 72 h; NCI-H2052, RAF WT, RAS WT, 3-day; read-out: gIC50
In short: as §1

NCI-H2228 = settings: Homo sapiens, 72 h; NCI-H2228, RAF WT, RAS WT, 3-day; read-out: gIC50
In short: as §1

NCI-H630 = settings: Homo sapiens, 72 h; NCI-H630, RAF WT, RAS WT, 3-day; read-out: gIC50
In short: as §1

NCI-H747 = settings: Homo sapiens, 72 h; NCI-H747, RAF WT, KRAS(G13D), 3-day; read-out: gIC50
In short: as §1

NCI-H82 = settings: Homo sapiens, 72 h; NCI-H82, RAF WT, RAS WT, 3-day; read-out: gIC50
In short: as §1

OE-19 = settings: Homo sapiens, OE19, 72 h; OE-19, RAF WT, RAS WT, 3-day; read-out: gIC50
In short: as §1

SCLC-3 = settings: Homo sapiens, 72 h; SCLC-3, RAF WT, RAS WT, 3-day; read-out: gIC50
In short: as §1

SK-BR-3 = settings: Homo sapiens, 72 h; SK-BR-3, RAF WT, RAS WT, 3-day; read-out: gIC50
In short: as §1

SK-MEL-3 = settings: Homo sapiens, SK-MEL3, 72 h; SK-MEL-3, BRAF(V600E), RAS WT, 3-day; read-out: gIC50
In short: as §1

SW579 = settings: Homo sapiens, 72 h; SW579, RAF WT, RAS WT, 3-day; read-out: gIC50
In short: as §1

SW756 = settings: Homo sapiens, 72 h; SW756, RAF WT, KRAS(G12C), 3-day; read-out: gIC50
In short: as §1

SW900 = settings: Homo sapiens, 72 h; SW900, RAF WT, RAS WT, 3-day; read-out: gIC50
In short: as §1

UACC-62 = settings: Homo sapiens, 72 h; UACC-62, BRAF(V600E), RAS WT, 3-day; read-out: gIC50
In short: as §1

`CC(C)(C)c1nc(-c2cccc(NS(=O)(=O)c3c(F)cccc3F)c2F)c(-c2ccnc(N)n2)s1` [dabrafenib] was tested, and the IC50 (647-V) was greater than 10 µM, the IC50 (A2780) was greater than 10 µM and the IC50 (A673) was greater than 10 µM. The IC50 (BC-1) was 0.704 µM, the IC50 (BC-3) was 0.277 µM and the IC50 (BFTC-905) was greater than 10 µM. For the same compound, the IC50 (CAL-62) was greater than 10 µM, the IC50 (CEM/C1) was 1.77 µM and the IC50 (Calu-6) was greater than 10 µM. It also gave an IC50 (Colo320DM) greater than 10 µM, an IC50 (DOTC 24510) greater than 10 µM and an IC50 (DU-145) greater than 10 µM. The IC50 (G401) was greater than 10 µM, the IC50 (HOS) was greater than 10 µM and the IC50 (HeLa) was greater than 10 µM. For the same compound, the IC50 (HuT78) was 0.052 µM, the IC50 (MC/CAR) was 1 µM and the IC50 (MDA-MB-468) was greater than 10 µM. The IC50 (NCI-H2052) was greater than 10 µM, the IC50 (NCI-H2228) was greater than 10 µM and the IC50 (NCI-H630) was greater than 10 µM. The IC50 (NCI-H747) was greater than 10 µM, the IC50 (NCI-H82) was greater than 10 µM and the IC50 (OE-19) was greater than 10 µM. For the same compound, the IC50 (SCLC-3) was greater than 10 µM, the IC50 (SK-BR-3) was greater than 10 µM and the IC50 (SK-MEL-3) was 0.007 µM. For the same compound, the IC50 (SW579) was greater than 10 µM, the IC50 (SW756) was greater than 10 µM and the IC50 (SW900) was greater than 10 µM. For the same compound, the IC50 (UACC-62) was 0.001 µM.
